Assay: Solubility in the solvent of a naphthacene compound with para-bonded aromatic substituents
Assay type: physicochemical
Conditions: solvent not specified (aromatic, halogen type or ether type solvent)

solubility: ≤ 0.1 wt %
SMILES: c1ccc(-c2ccc(-c3c4ccccc4c(-c4ccc(-c5ccccc5)cc4-c4ccccc4)c4cc5ccccc5cc34)c(-c3ccccc3)c2)cc1

Source: US20080111109A1, “ORGANIC-ELECTROLUMINESCENCE-MATERIAL-CONTAINING SOLUTION, METHOD FOR FORMING THIN FILM OF ORGANIC ELECTROLUMINESCENCE MATERIAL, THIN FILM OF ORGANIC ELECTROLUMINESCENCE MATERIAL AND ORGANIC ELECTROLUMINESCENCE DEVICE” (Idemitsu Kosan Co., Ltd., priority 2006, published 2008)
